Laboratory results taken from paper PMC8849047, “Salicylate metal-binding isosteres as fragments for metalloenzyme inhibition” (Chemical Science, 2022).
Where two headings read alike, the source gives them in different places.

What was measured:
[1] = type: physicochemical
Description: This was confirmed by computationally calculated physicochemical data (Tables S2 and S3 ^†).

[2] = tested on: influenza H1N1 N-terminal PA endonuclease (PAN); assay: PAN endonuclease inhibition assay (fluorescent ssDNA-oligo substrate); type: biochemical; settings: 100 μM; standard deviation in parentheses
[3] = target: T1, Recombinant human glyoxalase I (GLO1) (Homo sapiens, UniProt Q04760); assay: GLO1 enzyme inhibition assay (absorbance at 240 nm); type: biochemical; settings: for inhibition at 100 µM: read-out: %inhib GLO1
T1 construct: purchased R&D Systems 4959-GL
T1 sequence (Q04760 2-184 limits assumed): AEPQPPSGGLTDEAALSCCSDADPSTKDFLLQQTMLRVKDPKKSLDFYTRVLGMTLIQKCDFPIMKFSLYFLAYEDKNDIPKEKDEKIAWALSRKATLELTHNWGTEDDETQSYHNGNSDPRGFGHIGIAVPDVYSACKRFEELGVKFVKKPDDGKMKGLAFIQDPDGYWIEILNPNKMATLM
Description: To evaluate if the salicylate MBIs could serve as starting points for future FBDD campaigns, the MBI library was screened for inhibitory activity against human glyoxalase I (GLO1) at fragment concentrations of 100 μM (Table 2). […] Recombinant human glyoxalase I (GLO1) was purchased from R&D Systems (catalog #4959-GL). Assays were carried out in 0.1 M sodium phosphate, pH 7.0 buffer, utilizing 96-well clear UV plates (Corning UV Transparent Microplates, catalog #3635). A fresh solution of GSH (100 mM) and methylglyoxal (MG) (100 mM) was prepared in Millipore grade water. […] The substrate mixture was vortexed vigorously for 45 s and then allowed to sit at room temperature for 15 min. The initial well volume was 50 μL containing GLO1 (40 ng) and inhibitor. This protein and inhibitor mixture was incubated for 15–20 min prior to addition of the substrate. […] The enzyme activity was measured utilizing a Biotek Synergy HT or H4 plate reader by measuring absorbance at 240 nm every 1 min for a duration of 8 min. The rate of absorbance increase was compared for samples versus controls containing no inhibitor (set at 100% activity). The absorbance reading for background wells containing DMSO, buffer, and substrate (no enzyme or inhibitor) was subtracted from the experimental wells. […] Dose-response curves were generated, analysed and fitted to obtain IC50 values (see ESI ^†).
5. Single Point screening
Single point screening of salicylate MBI library against GLO1 at 100 µM inhibitor concentration. Chugai 1 (4,6-diphenyl-N-hydroxypyridone) 4 as positive control. […]
6. Dose-response curves against GLO1
The raw data from the GLO1 assay was background corrected and normalized from 0 to 100 with 100 being the largest mean of each dataset. A variable slope log-logistic model was chosen for curve fitting.
The corresponding datapoints are shown as empty bullets and were not included in the curve-fitting. The resulting restricted datasets were fitted according to a literature procedure setting the lower limit of the dose-response curve to zero. This compensates for the loss of information caused by trimming of the dataset. 5,6
Figure S7. Dose-response curve of 11 against GLO1.

[4] = target: T2, Human recombinant MMP-3 catalytic domain (Homo sapiens, UniProt P08254); assay: MMP-3 enzyme inhibition assay (chromogenic substrate, 412 nm); type: biochemical; settings: standard deviation in parentheses, read-out: %inhib MMP-3
T2 construct: Human recombinant MMP-3 catalytic domain was purchased; purchased ENZO Life Sciences BML-SE109-9090
T2 sequence (P08254 100-272 limits assumed): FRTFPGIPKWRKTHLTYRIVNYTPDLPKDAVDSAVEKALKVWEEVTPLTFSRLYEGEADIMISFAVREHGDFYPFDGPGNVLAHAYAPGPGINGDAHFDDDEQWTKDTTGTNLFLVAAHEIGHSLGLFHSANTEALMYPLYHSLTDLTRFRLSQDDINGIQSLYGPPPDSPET
Description: To probe the selectivity of the salicylate MBIs, the library was screened against matrix metalloproteinase-3 (MMP-3) at fragment concentrations of 100 μM (Table 2).
Human recombinant MMP-3 catalytic domain was purchased from ENZO Life Sciences (catalog # BML-SE109-9090). Assays were carried out in clear Costar 96-well, half-area, flat-bottom assay plates (catalog # 80-2404). Each well contained a total volume of 100 μL including buffer (50 mM MES, 10 mM CaCl2, 0.05% Brij-35, 1 mM DNTB, pH 6.0), MMP-3 (2 U), and the fragment solution. After a 30 min incubation period at 37 °C, the reaction was initiated by the addition of 10 μL of chromogenic MMP-3 substrate (100 μM final concentration, Ac-Pro-Leu-Gly-[2-mercap-to-4-methyl-pentanoyl]-Leu-Gly-OC2H5, ENZO Life Sciences, catalog #BML-P125-0005). Absorbance was monitored at 412 nm using a Bio-Tek ELx 808 colorimetric plate reader, and measurements were recorded every minute for 10 min. The rate of absorbance increase was compared for samples versus negative controls (no inhibitor, arbitrarily set as 100% activity).
5. Single Point screening […]
Figure S5. Single point screening of salicylate MBI library against MMP-3 at 100 µM inhibitor
concentration. NNGH as positive control.

[5] = target: T1, Recombinant human glyoxalase I (GLO1); parameters: method as in previous studies (unpublished); settings: ref previous studies (unpublished); read-out: IC50 against GLO1; cited from earlier work
[6] = log P by potentiometric titration octanol/water (Sirius T3); log D7.4 calculated from pKa and log P; type: physicochemical
Description: In addition to gaining an understanding about the metal coordinating properties of the salicylate MBIs by using [(Tp^Ph,Me)Zn(MBI)] model complexes, the physicochemical properties of the MBIs were also studied. The acidity (pKa) and lipophilicity (log P) were measured using potentiometric methods and the lipophilicity at physiological pH (log D7.4) was calculated from these two values (Table 1).[23–25]
Physicochemical properties were determined using a Sirius T3 instrument.[23–25] […] The pKa of a compound was determined by analysing each MBI sample in triplicate using potentiometric titrations. Experiments were typically performed over a pH range of 2.0–12.0. Standard deviations were derived from fitting all three replicate experiments. For water insoluble compounds methanol was added and the obtained apparent pKa (psKa) was extrapolated to the aqueous pKa by the Yasuda–Shedlovsky procedure. log P was determined via potentiometric titrations in the presence of varying ratios of octanol and water. The presence of octanol shifts the pKa of ionizable species, and based on the shifts, a log P can be determined. Measurements for log P determination were typically performed over a pH range of 2.0–12.0. Three experiments with varying ratios of water:octanol was performed, allowing for a standard deviation to be determined from the fitting of all measurements. MBI sample sizes were ∼0.5 mg for both pKa and log P measurements.

[7] = 100 μM, standard deviation in parentheses

CS(=O)(=O)Nc1ccccc1-c1nc2ccccc2s1 [Compound 27]
aqueous solubility [1]: poor aqueous solubility
%inhib Endo (PAN) [2]: 15 (7) %
inhibition at 100 µM [3, 7]: 44%
inhibition at 100 µM [4]: 0%

O=C(O)c1ccccc1O [Compound 1, Salicylic acid, reference compound]
IC50 [5]: > 50 µM
%inhib Endo (PAN) [2]: 12 (7) %
inhibition at 100 µM [3, 7]: 22%
inhibition at 100 µM [4]: 8%
logP [6]: 2.18
logD ([6]; pH 7.4): -2.4

c1ccc2sc(-c3cccc4nc[nH]c34)nc2c1 [Compound 28]
aqueous solubility [1]: poor aqueous solubility
%inhib Endo (PAN) [2]: 4 (8) %

Oc1ccccc1-c1nc2ccccc2s1 [Compound 11]
aqueous solubility [1]: poor aqueous solubility
%inhib Endo (PAN) [2]: 21 (6) %
%inhib GLO1 [3, 7]: almost complete inhibition
inhibition at 100 µM [3, 7]: 94%
IC50 ([3]; dose-response curves, read-out: IC50 against GLO1): 19.6 ± 4.7 µM
inhibition at 100 µM [4]: 0%
